The results in this text go back to patent publication US20240174634A1, “Aldehyde Dehydrogenase Inhibitors and Their Therapeutic Use” (priority 2020, published 2024).

For one experiment, the target named is T1, ALDH1A1 (Homo sapiens, UniProt P00352).
T1 construct: His-tag; made in house; host or cells: E. coli Rosetta (DE3)
T1 sequence (P00352 1-501): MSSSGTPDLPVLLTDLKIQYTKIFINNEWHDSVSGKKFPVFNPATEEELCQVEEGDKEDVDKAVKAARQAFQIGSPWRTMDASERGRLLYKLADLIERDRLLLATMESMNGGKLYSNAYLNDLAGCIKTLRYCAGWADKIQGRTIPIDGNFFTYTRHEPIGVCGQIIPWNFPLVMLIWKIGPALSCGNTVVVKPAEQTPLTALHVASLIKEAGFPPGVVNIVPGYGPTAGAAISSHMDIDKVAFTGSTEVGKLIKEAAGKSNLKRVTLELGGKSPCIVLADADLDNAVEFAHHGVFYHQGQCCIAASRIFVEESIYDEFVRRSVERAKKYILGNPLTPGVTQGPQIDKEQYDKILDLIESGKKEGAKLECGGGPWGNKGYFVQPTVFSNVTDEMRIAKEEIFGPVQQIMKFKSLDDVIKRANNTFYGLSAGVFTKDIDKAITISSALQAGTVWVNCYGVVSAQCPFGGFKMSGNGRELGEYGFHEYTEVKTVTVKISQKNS
The experiment in a line: Selectivity biochemical assay, NAD(P)H-Glo Detection System. A digest of the protocol: (§1)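 Recombinant full-length His-tagged human enzymes expressed in E. coli were pre-incubated 30 min at room temperature with compound (10-point, 3-fold series; top 20 μM for ALDH1A3, 250 μM for ALDH1A1/1A2). Propionaldehyde and NAD were then added at Km; NADH was read by NAD(P)H-Glo luminescence. Buffer: Tris (pH 7.6 for 1A1/1A2, 9.0 for 1A3), 1 mM TCEP, 0.01% Tween-20.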

In another experiment the target is T2, ALDH1A2 (Homo sapiens, UniProt O94788).
T2 construct: His-tag; made in house; host or cells: E. coli Rosetta (DE3)
T2 sequence (O94788 1-518): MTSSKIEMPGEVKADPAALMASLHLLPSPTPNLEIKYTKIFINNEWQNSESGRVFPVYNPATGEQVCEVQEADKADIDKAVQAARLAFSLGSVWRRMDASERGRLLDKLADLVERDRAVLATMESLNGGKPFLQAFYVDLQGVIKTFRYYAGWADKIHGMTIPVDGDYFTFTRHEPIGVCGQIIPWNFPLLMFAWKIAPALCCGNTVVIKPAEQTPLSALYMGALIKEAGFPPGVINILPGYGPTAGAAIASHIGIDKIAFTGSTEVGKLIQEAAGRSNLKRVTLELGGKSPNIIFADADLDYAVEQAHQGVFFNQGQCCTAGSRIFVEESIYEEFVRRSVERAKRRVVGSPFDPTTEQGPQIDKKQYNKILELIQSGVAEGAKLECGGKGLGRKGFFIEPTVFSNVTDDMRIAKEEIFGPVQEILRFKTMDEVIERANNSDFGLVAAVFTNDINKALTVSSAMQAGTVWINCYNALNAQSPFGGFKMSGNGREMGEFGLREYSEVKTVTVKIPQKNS
Described as above. An outline of the steps: as §1

The structures appear in SMILES notation.

As for `O=C1CCc2cc(OCCN3C(=O)CCC3c3ccccc3)ccc2N1` (centres unmarked) [ALDHI-2051, 6-[2-(2-oxo-5-phenyl-pyrrolidin-1-yl)ethoxy]-3,4-dihydro-1H-quinolin-2-one], the 50% inhibitory concentration (IC50) (usually the concentration needed to halve the response being measured) on ALDH1A1 was not below 100 µM; against ALDH1A2, 1 to 10 µM.

`O=C1CCc2cc(OCCN3CC(F)CC3c3cccc(F)c3)ccc2N1` (centres unmarked) [ALDHI-2052, 6-[2-[4-fluoro-2-(3-fluorophenyl)pyrrolidin-1-yl]ethoxy]-3,4-dihydro-1H-quinolin-2-one]: the IC50 at ALDH1A1 was not below 100 µM; at ALDH1A2 it was 0.1 to 1 µM.

As for `O=C1CCc2cc(OCCN3CC(F)(F)CC3c3cccc(F)c3)ccc2N1` (centres unmarked) [ALDHI-2053, 6-[2-[4,4-difluoro-2-(3-fluorophenyl)pyrrolidin-1-yl]ethoxy]-3,4-dihydro-1H-quinolin-2-one], the IC50 on ALDH1A1 was not below 100 µM; at ALDH1A2, 1 to 10 µM.

For `CN(CCOc1ccc2c(c1)CCC(=O)N2)Cc1cccc(F)c1` [ALDHI-3001, 6-[2-[(3-fluorophenyl)methyl-methyl-amino]ethoxy]-3,4-dihydro-1H-quinolin-2-one], the IC50 against ALDH1A1 is not below 100 µM; against ALDH1A2 it was 1 to 10 µM.

Turning to `O=C1CCc2cc(OCCN(CCO)Cc3cccc(F)c3)ccc2N1` [ALDHI-3002, 6-[2-[(3-fluorophenyl)methyl-(2-hydroxyethyl)amino]ethoxy]-3,4-dihydro-1H-quinolin-2-one], the IC50 at ALDH1A1 was not below 100 µM; against ALDH1A2, 0.1 to 1 µM.

As to `CN(CCOc1ccc2c(c1)CCC(=O)N2)C(CO)c1cccc(F)c1` (centres unmarked) [ALDHI-3003, 6-[2-[[1-(3-fluorophenyl)-2-hydroxy-ethyl]-methyl-amino]ethoxy]-3,4-dihydro-1H-quinolin-2-one], the IC50 is not below 100 µM against ALDH1A1 and 1 to 10 µM against ALDH1A2.

For `CCN(CC)CCN(CCOc1ccc2c(c1)CCC(=O)N2)Cc1ccccc1` [ALDHI-3004, 6-[2-[benzyl-[2-(diethylamino)ethyl]amino]ethoxy]-3,4-dihydro-1H-quinolin-2-one], the IC50 on ALDH1A1 was not below 100 µM; at ALDH1A2, 1 to 10 µM.

Regarding `O=C1CCc2cc(OCCN(CCO)Cc3cccnc3)ccc2N1` [ALDHI-3005, 6-[2-[2-hydroxyethyl(3-pyridylmethyl)amino]ethoxy]-3,4-dihydro-1H-quinolin-2-one], the IC50 at ALDH1A1 is not below 100 µM; at ALDH1A2, 10 to 100 µM.

Regarding `C[C@H](c1ccccc1)N(CCO)CCOc1ccc2c(c1)CCC(=O)N2` [ALDHI-3006, 6-[2-[2-hydroxyethyl-[(1R)-1-phenylethyl]amino]ethoxy]-3,4-dihydro-1H-quinolin-2-one], the IC50 against ALDH1A1 lay within 10 to 100 µM; at ALDH1A2, 1 to 10 µM.

Turning to `C[C@@H](c1ccccc1)N(CCO)CCOc1ccc2c(c1)CCC(=O)N2` [ALDHI-3007, 6-[2-[2-hydroxyethyl-[(1S)-1-phenylethyl]amino]ethoxy]-3,4-dihydro-1H-quinolin-2-one], the IC50 against ALDH1A1 is 10 to 100 µM; against ALDH1A2, 1 to 10 µM.

For `CN(CCOc1ccc2c(c1)CCC(=O)N2)C(=O)c1cccc(F)c1` [ALDHI-3008, 3-fluoro-N-methyl-N-[2-[(2-oxo-3,4-dihydro-1H-quinolin-6-yl)oxy]ethyl]benzamide], the IC50 against ALDH1A1 is not below 100 µM; against ALDH1A2 it was 1 to 10 µM.

Consider `CN(CCOc1ccc2c(c1)CCC(=O)N2)Cc1cccnc1` [ALDHI-3010, 6-[2-[methyl(3-pyridylmethyl)amino]ethoxy]-3,4-dihydro-1H-quinolin-2-one], for which the IC50 against ALDH1A1 and on ALDH1A2 was 10 to 100 µM in each case.

As for `CN(CCOc1ccc2c(c1)CCC(=O)N2)C(=O)c1cccnc1` [ALDHI-3013, N-methyl-N-[2-[(2-oxo-3,4-dihydro-1H-quinolin-6-yl)oxy]ethyl]pyridine-3-carboxamide], the IC50 against ALDH1A1 and at ALDH1A2 was not below 100 µM throughout.
